Measured values: PubChem BioAssay AID330 (DTP/NCI, 2004)
Values joined by “and” are separate entries in the source; they are usually repeats but may differ in a detail not shown here. Identical values can stand only once. Inconclusive results and toxic doses are left out.

System: P388 leukemia ip, CD2F1 mice, survival T/C
Assay: NCI In Vivo Anticancer Drug Screen. Data for tumor model P388 Leukemia (intraperitoneal) in CD2F1 (CDF1) mice
Conditions: endpoint: median survival time, higher = longer survival
How it was run: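 Mice carrying the transplanted tumor received test compound or vehicle. Survival was recorded in each group, and the value is the treated-group measurement divided by that of the vehicle-treated control group.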

[1] = dose: 50.0 mg/kg/injection, schedule: Q01DX009 (ip), vehicle: Klucel (hydroxypropylcellulose) (HPC)
[2] = dose: 100.0 mg/kg/injection, schedule: Q01DX009 (ip), vehicle: Klucel (hydroxypropylcellulose) (HPC)
[3] = dose: 60.0 mg/kg/injection, schedule: Q01DX005 (ip), vehicle: saline with Tween-80
[4] = dose: 120.0 mg/kg/injection, schedule: Q01DX005 (ip), vehicle: saline with Tween-80
[5] = dose: 240.0 mg/kg/injection, schedule: Q01DX005 (ip), vehicle: saline with Tween-80
[6] = dose: 50.0 mg/kg/injection, schedule: Q01DX005 (ip), vehicle: saline with Tween-80
[7] = dose: 100.0 mg/kg/injection, schedule: Q01DX005 (ip), vehicle: saline with Tween-80
[8] = dose: 200.0 mg/kg/injection, schedule: Q01DX005 (ip), vehicle: saline with Tween-80
[9] = dose: 50.0 mg/kg/injection, schedule: Q01DX005 (ip), vehicle: Klucel (hydroxypropylcellulose) (HPC)
[10] = dose: 100.0 mg/kg/injection, schedule: Q01DX005 (ip), vehicle: Klucel (hydroxypropylcellulose) (HPC)
[11] = dose: 200.0 mg/kg/injection, schedule: Q01DX005 (ip), vehicle: Klucel (hydroxypropylcellulose) (HPC)
[12] = dose: 50.0 mg/kg/injection, schedule: Q01DX009 (ip), vehicle: saline
[13] = dose: 100.0 mg/kg/injection, schedule: Q01DX009 (ip), vehicle: saline
[14] = dose: 200.0 mg/kg/injection, schedule: Q01DX009 (ip), vehicle: saline

O=C1NC(=O)C(SSC2C(=O)NC(=O)NC2=O)C(=O)N1
T/C [1]: 109 % of control | T/C [2]: 95 % of control | T/C (dose: 200.0 mg/kg/injection, schedule: Q01DX009 (ip), vehicle: Klucel (hydroxypropylcellulose) (HPC)): 94 % of control

CCn1c(=O)n(C)c(=O)c2[nH]c(Cl)nc21
T/C (dose: 16.0 mg/kg/injection, schedule: Q01DX009 (ip), vehicle: Klucel (hydroxypropylcellulose) (HPC)): 105 % of control | T/C (dose: 25.0 mg/kg/injection, schedule: Q01DX009 (ip), vehicle: Klucel (hydroxypropylcellulose) (HPC)): 92 % of control | T/C (dose: 32.0 mg/kg/injection, schedule: Q01DX009 (ip), vehicle: Klucel (hydroxypropylcellulose) (HPC)): 104 % of control | T/C [1]: 91 % of control | T/C (dose: 64.0 mg/kg/injection, schedule: Q01DX009 (ip), vehicle: Klucel (hydroxypropylcellulose) (HPC)): 97 % of control | T/C [2]: 94 % of control

Cc1ccc(NC(=S)NNC(=O)CN2C(=O)c3ccccc3C2=O)cc1
T/C (dose: 12.5 mg/kg/injection, schedule: Q01DX001 (ip), vehicle: Klucel (hydroxypropylcellulose) (HPC)): 93 % of control | T/C (dose: 25.0 mg/kg/injection, schedule: Q01DX001 (ip), vehicle: Klucel (hydroxypropylcellulose) (HPC)): 93 % of control | T/C (dose: 50.0 mg/kg/injection, schedule: Q01DX001 (ip), vehicle: Klucel (hydroxypropylcellulose) (HPC)): 89 % of control and 90 % of control

Clc1nc2nc3n(c2nc1Cl)CCC3(Br)Br
T/C [3]: 97 % of control | T/C [4]: 109 % of control | T/C [5]: 103 % of control

Cc1ccc2c(c1)C(C(F)(F)F)(C(F)(F)F)OC(C(F)(F)F)(C(F)(F)F)N2
T/C (dose: 50.0 mg/kg/injection, schedule: Q04DX003 (ip), vehicle: saline with Tween-80): 104 % of control | T/C (dose: 100.0 mg/kg/injection, schedule: Q04DX003 (ip), vehicle: saline with Tween-80): 100 % of control | T/C (dose: 200.0 mg/kg/injection, schedule: Q04DX003 (ip), vehicle: saline with Tween-80): 108 % of control

CC1(C)C(=NOCc2ccccc2)C(C)(C)C1=NOCc1ccccc1
T/C [6]: 91 % of control | T/C [7]: 87 % of control | T/C [8]: 86 % of control

COc1ccc(NC(=O)Oc2ccc(C#N)cc2)cc1
T/C (dose: 7.5 mg/kg/injection, schedule: Q01DX005 (ip), vehicle: Klucel (hydroxypropylcellulose) (HPC)): 108 % of control and 98 % of control | T/C (dose: 15.0 mg/kg/injection, schedule: Q01DX005 (ip), vehicle: Klucel (hydroxypropylcellulose) (HPC)): 112 % of control and 98 % of control | T/C (dose: 30.0 mg/kg/injection, schedule: Q01DX005 (ip), vehicle: Klucel (hydroxypropylcellulose) (HPC)): 105 % of control and 108 % of control | T/C (dose: 60.0 mg/kg/injection, schedule: Q01DX005 (ip), vehicle: Klucel (hydroxypropylcellulose) (HPC)): 116 % of control and 123 % of control | T/C (dose: 120.0 mg/kg/injection, schedule: Q01DX005 (ip), vehicle: Klucel (hydroxypropylcellulose) (HPC)): 117 % of control

CCC(=O)c1ccc(O)c(O)c1
T/C (dose: 50.0 mg/kg/injection, schedule: Q01DX009 (ip), vehicle: saline with Tween-80): 104 % of control | T/C (dose: 100.0 mg/kg/injection, schedule: Q01DX009 (ip), vehicle: saline with Tween-80): 105 % of control

CC(C)(C)c1ccc(C(=O)NNC(O)C(F)(F)F)cc1 (stereo not given)
T/C (dose: 100.0 mg/kg/injection, schedule: Q04DX002 (ip), vehicle: Klucel (hydroxypropylcellulose) (HPC)): 101 % of control | T/C (dose: 200.0 mg/kg/injection, schedule: Q04DX002 (ip), vehicle: Klucel (hydroxypropylcellulose) (HPC)): 103 % of control

CCCNS(=O)(=O)c1ccccc1C(=O)NC1CCCCC1
T/C [9]: 103 % of control | T/C [10]: 93 % of control | T/C [11]: 94 % of control

CC(C)C(NC(=O)OCC1c2ccccc2-c2ccccc21)C(=O)O (stereo not given)
T/C [9]: 104 % of control | T/C [10]: 99 % of control | T/C [11]: 98 % of control

Cc1ccc(S(=O)(=O)N/N=C/c2cc([N+](=O)[O-])ccc2O)cc1
T/C (dose: 12.5 mg/kg/injection, schedule: Q01DX005 (ip), vehicle: distilled water + Tween-80): 93 % of control | T/C (dose: 25.0 mg/kg/injection, schedule: Q01DX005 (ip), vehicle: distilled water + Tween-80): 100 % of control | T/C (dose: 50.0 mg/kg/injection, schedule: Q01DX005 (ip), vehicle: distilled water + Tween-80): 112 % of control | T/C (dose: 100.0 mg/kg/injection, schedule: Q01DX005 (ip), vehicle: distilled water + Tween-80): 105 % of control

CCC(=O)Nc1ccc(N=NN(C)C)cc1
T/C (dose: 6.25 mg/kg/injection, schedule: Q04DX002 (ip), vehicle: Klucel (hydroxypropylcellulose) (HPC)): 97 % of control | T/C (dose: 12.5 mg/kg/injection, schedule: Q04DX002 (ip), vehicle: Klucel (hydroxypropylcellulose) (HPC)): 106 % of control | T/C (dose: 25.0 mg/kg/injection, schedule: Q04DX002 (ip), vehicle: Klucel (hydroxypropylcellulose) (HPC)): 100 % of control and 109 % of control

[Br][Rh][Br].[NH-]c1nc2ccc(Br)cc2s1.[NH-]c1nc2ccc(Br)cc2s1.[NH-]c1nc2ccc(Br)cc2s1.[NH-]c1nc2ccc(Br)cc2s1
T/C [12]: 100 % of control | T/C [13]: 98 % of control | T/C [14]: 100 % of control

O=c1oc2ccccc2c(O)c1C=Nc1ccccc1
T/C (dose: 12.5 mg/kg/injection, schedule: Q01DX009 (ip), vehicle: saline with Tween-80): 89 % of control | T/C (dose: 25.0 mg/kg/injection, schedule: Q01DX009 (ip), vehicle: saline with Tween-80): 88 % of control

COc1ccccc1N=C(NC#N)C(c1ccccc1)c1ccccc1
T/C (dose: 100.0 mg/kg/injection, schedule: Q01DX001 (ip), vehicle: saline with Tween-80): 99 % of control | T/C (dose: 200.0 mg/kg/injection, schedule: Q01DX001 (ip), vehicle: saline with Tween-80): 97 % of control | T/C (dose: 400.0 mg/kg/injection, schedule: Q01DX001 (ip), vehicle: saline with Tween-80): 93 % of control

COC(=O)c1cc(-c2ccncc2)[nH]c(=O)c1C#N
T/C (dose: 60.0 mg/kg/injection, schedule: Q01DX005 (ip), vehicle: saline): 101 % of control | T/C (dose: 120.0 mg/kg/injection, schedule: Q01DX005 (ip), vehicle: saline): 99 % of control | T/C (dose: 240.0 mg/kg/injection, schedule: Q01DX005 (ip), vehicle: saline): 94 % of control

CC(C)(C)SC(=S)SCC(=O)c1cc2ccccc2o1
T/C [6]: 100 % of control | T/C [7]: 93 % of control | T/C [8]: 93 % of control

Nc1ncnc2nc(Cl)[nH]c12
T/C [9]: 91 % of control | T/C [10]: 93 % of control | T/C [11]: 93 % of control

O=C1C2CCC(N1c1ccc(F)cc1)n1c(=O)n(-c3ccccc3)c(=O)n12 (stereo not given)
T/C (dose: 100.0 mg/kg/injection, schedule: Q01DX001 (ip), vehicle: Klucel (hydroxypropylcellulose) (HPC)): 104 % of control | T/C (dose: 200.0 mg/kg/injection, schedule: Q01DX001 (ip), vehicle: Klucel (hydroxypropylcellulose) (HPC)): 94 % of control | T/C (dose: 400.0 mg/kg/injection, schedule: Q01DX001 (ip), vehicle: Klucel (hydroxypropylcellulose) (HPC)): 100 % of control

CNC(=O)Oc1ccc(OC2OC(CO)C(O)C(O)C2O)c2ccccc12 (stereo not given)
T/C (dose: 100.0 mg/kg/injection, schedule: Q01DX001 (ip), vehicle: saline): 101 % of control | T/C (dose: 200.0 mg/kg/injection, schedule: Q01DX001 (ip), vehicle: saline): 104 % of control | T/C (dose: 400.0 mg/kg/injection, schedule: Q01DX001 (ip), vehicle: saline): 103 % of control

COc1ccc(NCS(=O)(=O)O)cc1
T/C (dose: 100.0 mg/kg/injection, schedule: Q04DX003 (ip), vehicle: saline): 100 % of control | T/C (dose: 200.0 mg/kg/injection, schedule: Q04DX003 (ip), vehicle: saline): 108 % of control | T/C (dose: 400.0 mg/kg/injection, schedule: Q04DX003 (ip), vehicle: saline): 104 % of control

CC(C(=O)S)C(O)(c1ccccc1)c1ccccc1 (stereo not given)
T/C (dose: 25.0 mg/kg/injection, schedule: Q04DX003 (ip), vehicle: Klucel (hydroxypropylcellulose) (HPC)): 98 % of control | T/C (dose: 50.0 mg/kg/injection, schedule: Q04DX003 (ip), vehicle: Klucel (hydroxypropylcellulose) (HPC)): 101 % of control | T/C (dose: 100.0 mg/kg/injection, schedule: Q04DX003 (ip), vehicle: Klucel (hydroxypropylcellulose) (HPC)): 107 % of control and 93 % of control

O=C(O)C1CSC(c2ccc(O)cc2)N1 (stereo not given)
T/C [12]: 87 % of control | T/C [13]: 88 % of control | T/C [14]: 90 % of control

O=NN(CCF)C(=O)NC1CCCCC1
T/C (dose: 16.5 mg/kg/injection, schedule: Q04DX003 (ip), vehicle: saline with Tween-80): 209 % of control | T/C (dose: 25.0 mg/kg/injection, schedule: Q04DX003 (ip), vehicle: saline with Tween-80): 225 % of control

Nc1ccc(Cl)cc1C(=O)c1ccccc1Cl
T/C [3]: 96 % of control | T/C [4]: 96 % of control | T/C [5]: 90 % of control
